In the assay the target is T1, full length AKT1 (Homo sapiens, UniProt P31749).
T1 construct: His tag (from vector pFastBacHTb) (N); made in house; host or cells: Baculovirus, insect cells (virus made in Sf9, T. ni cells infected; the purification text says sf9 cells)
As to the kind of experiment: Full-length AKT enzyme assay (substrate phosphorylation, SPA). It is filed as biochemical. As to conditions: in at least one experimental run; pIC50 = -log(IC50), IC50 in molar units; 4 uM ATP, 10 nM activated enzyme; read-out: pIC50 against full length AKT1 (converted). The source says:
Full-length human AKT1 gene was amplified by PCR from a plasmid containing myristylated-AKT1-ER (gift from Robert T. Abraham, Duke University under MTA, described in Klippel et al. in Molecular and Cellular Biology 1998 Volume 18 p. 5699) using the 5′ primer: SEQ. ID NO: 2 5′ […] 3′ and the 3′ primer: SEQ. ID NO: 3 […] 3′. The 5′ primer included a BamHI site and the 3′ primer included an XhoI site for cloning purposes. The resultant PCR product was subcloned in pcDNA3 as a BamHI/XhoI fragment. A mutation in the sequence (TGC) coding for a Cysteine^25 was converted to the wild-type AKT1 sequence (CGC) coding for an Arginine^25 by site-directed mutagenesis using the QuikChange® Site Directed Mutagenesis Kit (Stratagene). The AKT1 mutagenic primer: SEQ. ID NO: 4 5′[…] and selection primer: SEQ. […] For expression/purification purposes, AKT1 was isolated as a BamHI/XhoI fragment and cloned into the BamHI/XhoI sites of pFastbacHTb (Invitrogen).
Expression was done using the BAC-to-BAC Baculovirus Expression System from Invitrogen (catalog #10359-016). […]
Compounds of the present invention were tested for AKT 1, 2, and 3 protein serine kinase inhibitory activity in substrate phosphorylation assays. […] Substrate phosphorylation was detected by the following procedure. […]

The values that follow come from patent publication US20110160255A1, “INHIBITORS OF AKT ACTIVITY” (priority 2008, published 2011).

T1 sequence (P31749 whole entry): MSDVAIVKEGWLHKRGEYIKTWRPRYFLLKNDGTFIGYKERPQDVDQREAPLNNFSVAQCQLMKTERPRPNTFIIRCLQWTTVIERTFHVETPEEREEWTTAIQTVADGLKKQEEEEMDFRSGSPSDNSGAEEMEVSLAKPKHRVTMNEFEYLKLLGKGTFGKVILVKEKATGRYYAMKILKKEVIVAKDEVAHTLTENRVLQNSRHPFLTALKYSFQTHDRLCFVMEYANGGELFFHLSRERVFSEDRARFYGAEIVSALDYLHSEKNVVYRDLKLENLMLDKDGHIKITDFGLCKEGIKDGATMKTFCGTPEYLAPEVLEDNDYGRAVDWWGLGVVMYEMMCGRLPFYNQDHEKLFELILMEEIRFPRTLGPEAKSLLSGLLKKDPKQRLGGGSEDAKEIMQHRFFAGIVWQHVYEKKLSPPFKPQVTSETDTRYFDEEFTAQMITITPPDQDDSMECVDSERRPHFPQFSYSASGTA

In the case of `Cn1nccc1-c1nc(C(=O)N[C@H](CN)Cc2cccc(F)c2)cs1` [Example 1, N-{(1S)-2-amino-1-[(3-fluorophenyl)methyl]ethyl}-2-(1-methyl-1H-pyrazol-5-yl)-1,3-thiazole-4-carboxamide], the IC50 is 501 nM.
